Reference: ChEMBL document CHEMBL1144002, “N6-substituted C5'-modified adenosines as A1 adenosine receptor agonists” (Bioorg Med Chem, 2008)

Legend:
[1] = system: Adenosine receptor A1 (Mesocricetus auratus); assay: Ratio of Ki to IC50 for adenosine A1 receptor
[2] = molecular target: Adenosine receptor A1 (Mesocricetus auratus); assay: Displacement of [3H]CPX from adenosine A1 receptor in DDT1MF-2 cells
[3] = system: Adenosine receptor A1 (Mesocricetus auratus); assay: Intrinsic activity at adenosine A1 receptor assessed as maximal inhibition of isoproterenol-stimulated cAMP accumulation in DDT1MF-2 cells relative to CPA
[4] = molecular target: Adenosine receptor A1 (Mesocricetus auratus); assay: Agonist activity at adenosine A1 receptor assessed as inhibition of isoproterenol-stimulated cAMP accumulation in DDT1MF-2 cells

Compound | Ratio [1] | Ki [2] | Intrinsic activity [3] | IC50 [4]
CCCNC[C@H]1O[C@@H](n2cnc3c(N[C@H]4C[C@H]5CC[C@H]4C5)ncnc32)[C@H](O)[C@@H]1O | 1.3 | 7200 nM | 0.91 | 4950 nM
CC(=O)NC[C@H]1O[C@@H](n2cnc3c(N[C@H]4C[C@H]5CC[C@H]4C5)ncnc32)[C@H](O)[C@@H]1O | 1.3 | 5860 nM | 0.97 | 605 nM
C[Se]C[C@H]1O[C@@H](n2cnc3c(N[C@H]4C[C@@H]5C[C@@H]4C4SC45)ncnc32)[C@H](O)[C@@H]1O (stereo partly drawn) | 1.3 | 30 nM | 0.96 | 12 nM
CCNC(=O)[C@H]1O[C@@H](n2cnc3c(N[C@H]4C[C@@H]5C[C@@H]4C4SC45)ncnc32)[C@H](O)[C@@H]1O (stereo partly drawn) | 1.3 | 0.9 nM | 0.98 | 0.12 nM
CCSC[C@H]1O[C@@H](n2cnc3c(NC4CCCC4)ncnc32)[C@H](O)[C@@H]1O |  | 173 nM | 1.02 | 21 nM
CNC(=O)O[C@H]1O[C@@H](n2cnc3c(N[C@H]4C[C@@H]5C[C@@H]4C4SC45)ncnc32)[C@H](O)[C@@H]1O (stereo partly drawn) | 1.3 | 590 nM | 1.03 | 410 nM

The remaining lines, values ahead:

Ratio [1] | Ki [2] | Intrinsic activity [3] | IC50 [4] | Compound
1.3 | > 10000 nM | 0.83 | 867 nM | CNC[C@H]1O[C@@H](n2cnc3c(N[C@H]4C[C@H]5CC[C@H]4C5)ncnc32)[C@H](O)[C@@H]1O
1.3 | 3930 nM | 0.92 | 351 nM | NC[C@H]1O[C@@H](n2cnc3c(N[C@H]4C[C@H]5CC[C@H]4C5)ncnc32)[C@H](O)[C@@H]1O
1.3 | 17 nM | 0.97 | 7 nM | O[C@@H]1[C@H](O)[C@@H](CF)O[C@H]1n1cnc2c(N[C@H]3C[C@H]4CC[C@H]3C4)ncnc21
1.3 | 122 nM | 1.04 | 28 nM | CCSC[C@H]1O[C@@H](n2cnc3c(N[C@H]4C[C@H]5CC[C@H]4C5)ncnc32)[C@H](O)[C@@H]1O
1.3 | 283 nM | 1 | 224 nM | O[C@@H]1[C@H](O)[C@@H](CS)O[C@H]1n1cnc2c(N[C@H]3C[C@H]4CC[C@H]3C4)ncnc21
